Results as given in ChEMBL document CHEMBL4811312, “SAR towards indoline and 3-azaindoline classes of IDO1 inhibitors” (Bioorg Med Chem Lett, 2021).
Blank lines part the entries; values can stand above or below the compound they belong to.

Key:
[1] = molecular target: T1, Indoleamine 2,3-dioxygenase 1 (Homo sapiens, UniProt P14902); assay: Inhibition of human IDO1 in human Hela cells at 10 uM relative to control; type: cell-based
Target sequence in this assay (P14902 whole entry, looked up): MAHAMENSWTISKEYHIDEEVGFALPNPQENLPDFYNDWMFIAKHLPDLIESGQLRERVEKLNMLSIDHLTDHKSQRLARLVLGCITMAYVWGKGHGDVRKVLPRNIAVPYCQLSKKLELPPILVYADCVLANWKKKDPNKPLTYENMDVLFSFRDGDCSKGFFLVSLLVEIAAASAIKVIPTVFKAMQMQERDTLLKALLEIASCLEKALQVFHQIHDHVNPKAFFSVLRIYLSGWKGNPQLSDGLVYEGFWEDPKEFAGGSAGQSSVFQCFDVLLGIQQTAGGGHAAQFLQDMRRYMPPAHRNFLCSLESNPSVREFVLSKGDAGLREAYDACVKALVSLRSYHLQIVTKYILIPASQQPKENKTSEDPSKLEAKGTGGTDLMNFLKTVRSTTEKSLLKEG

[2] = molecular target: T1, Indoleamine 2,3-dioxygenase 1; assay: Inhibition of human IDO1 in human Hela cells; type: cell-based
Target sequence in this assay (P14902 whole entry): as the sequence (P14902 whole entry, looked up) above

[3] = molecular target: T1, Indoleamine 2,3-dioxygenase 1; assay: Inhibition of human IDO1 in HEK293 cells at 10 uM relative to control; type: cell-based
Target sequence in this assay (P14902 whole entry, looked up): as above

[4] = molecular target: T1, Indoleamine 2,3-dioxygenase 1; assay: Inhibition of human IDO1 by human whole blood assay; type: tissue-based
Target sequence in this assay (P14902 whole entry): as the sequence (P14902 whole entry, looked up) above

[5] = Clearance in Wistar Han rats at 0.05 mg/kg, iv; type: ADME, organism-based; settings: rat, in vivo
[6] = molecular target: T1, Indoleamine 2,3-dioxygenase 1; assay: Inhibition of human IDO1 assessed as unbound compound concentration by human whole blood assay; type: tissue-based
Target sequence in this assay (P14902 whole entry): as the sequence (P14902 whole entry, looked up) above

[7] = Unbound clearance in Wistar Han rats at 0.05 mg/kg, iv; type: ADME, organism-based; settings: rat, in vivo
[8] = Mean residence time in Wistar Han rat at 0.5 mg/kg, iv; type: ADME, organism-based; settings: in vivo
[9] = Mean residence time in Beagle dog at 0.5 mg/kg, iv; type: ADME, organism-based, Canis lupus familiaris; settings: in vivo
[10] = Unbound clearance in Beagle dog at 0.05 mg/kg, iv; type: ADME, organism-based, Canis lupus familiaris; settings: in vivo
[11] = Clearance in Beagle dog at 0.05 mg/kg, iv; type: ADME, organism-based, Canis lupus familiaris; settings: in vivo

inhibition [1]: 92%
IC50 [2]: 0.092 µM
Compound: CC(C)C(=O)N1CCc2cc(CNC(=O)c3ccco3)ccc21

inhibition [3]: 86%
Compound: CC(C)CC(=O)N1CCc2cc(CNC(=O)c3cccnc3)ccc21

inhibition [3]: 45%
Compound: CC(C)NC(=O)NCc1ccc2c(c1)CCN2C(=O)c1ccccc1

IC50 [2]: 0.0082 µM
Compound: Cc1nccc(N2c3ccc(C4(NC(=O)c5ccc(F)cc5)CC4)cc3[C@@H]3C[C@@H]32)n1

IC50 [2]: 0.093 µM
IC50 [4]: 0.24 µM
Compound: O=C(NC1(c2ccc3c(n2)CCN3c2ccnc(C(F)(F)F)n2)CCC1)c1ccc(Cl)cc1

inhibition [3]: 100%
Compound: CC(C)CC(=O)N1CCc2cc(CNC(=O)c3ccco3)ccc21

clearance [5]: 32 mL/min/kg
IC50 [2]: 0.0028 µM
IC50 [6]: 0.0041 µM
IC50 [4]: 0.3 µM
CL free [7]: 2318 mL/min/kg
MRT [8]: 1 h
Compound: COC(=O)N1c2ccc(C3(NC(=O)c4ccc(F)cc4)CC3)cc2[C@H]2CC[C@H]21

IC50 [2]: 0.0016 µM
IC50 [4]: 0.64 µM
Compound: O=C(Nc1ccc(Cl)cc1)C1(c2ccc3c(c2)CCN3c2ccccn2)CCC1

inhibition [3]: 87%
Compound: CCC(=O)N1CCc2cc(CNC(=O)c3ccccc3)ccc21

inhibition [3]: 89%
Compound: CCC(=O)N1CCc2cc(CNC(=O)c3cccs3)ccc21

IC50 [6]: 0.00084 µM
Compound: O=C(c1cccc(Cl)c1)N1CCc2nc(C3(C(=O)Nc4ccc(F)cc4)CCC3)ccc21

IC50 [2]: 0.0031 µM
Compound: O=C(Nc1ccc(F)cc1)C1(c2ccc3c(c2)CCN3c2ccccn2)CCC1

clearance [5]: 29 mL/min/kg
IC50 [2]: 0.0056 µM
CL free [7]: 2899 mL/min/kg
MRT [8]: 0.8 h
Compound: COC(=O)N1c2ccc(C3(NC(=O)c4ccc(F)cc4)CC3)cc2[C@@H]2CC[C@@H]21

clearance [5]: 60 mL/min/kg
IC50 [2]: 0.008 µM
IC50 [6]: 0.029 µM
IC50 [4]: 0.33 µM
CL free [7]: 668 mL/min/kg
MRT [8]: 1.2 h
Compound: O=C(C1CC1)N1CCc2nc(C3(C(=O)Nc4ccc(F)cc4)CCC3)ccc21

inhibition [3]: 20%
Compound: COCC(=O)NCc1ccc2c(c1)CCN2C(=O)CC(C)C

IC50 [2]: 0.021 µM
IC50 [4]: 0.43 µM
Compound: Cc1nccc(N2CCc3nc(C4(C(=O)Nc5ccc(F)cc5)CCC4)ccc32)n1

inhibition [3]: 82%
Compound: CCC(=O)N1CCc2cc(CNC(=O)c3cccc(F)c3)ccc21

IC50 [2]: 0.012 µM
Compound: O=C(NC1(c2ccc3c(n2)C2(CC2)CN3C(=O)OC2CC2)CC1)c1ccc(F)cc1

clearance [5]: 7.3 mL/min/kg
IC50 [2]: 0.034 µM
CL free [7]: 1176 mL/min/kg
MRT [8]: 3.4 h
Compound: Cc1nccc(N2CC3(CC3)c3nc(C4(NC(=O)c5ccc(F)cc5)CC4)ccc32)n1

inhibition [3]: 64%
Compound: CCCC(=O)NCc1ccc2c(c1)CCN2C(=O)CC(C)C

IC50 [2]: 0.0052 µM
IC50 [4]: 0.43 µM
Compound: Cc1nccc(N2CCc3cc(C4(C(=O)Nc5ccc(F)cc5)CCC4)ccc32)n1

IC50 [2]: 0.002 µM
IC50 [4]: 0.09 µM
Compound: O=C(OC1CC1)N1CCc2nc(C3(C(=O)Nc4ccc(Cl)cc4)CCC3)ccc21

IC50 [2]: 0.0038 µM
IC50 [4]: 0.064 µM
Compound: Cc1nccc(N2c3ccc(C4(NC(=O)c5ccc(F)cc5)CC4)cc3[C@H]3CC[C@H]32)n1

inhibition [3]: 100%
Compound: CC(C)C(=O)N1CCc2cc(CNC(=O)c3cccs3)ccc21

IC50 [2]: 0.0125 µM
Compound: Cc1nccc(N2CCc3nc(C4(C(=O)Nc5ccc(Cl)cc5)CCC4)ccc32)n1

IC50 [2]: 0.0069 µM
Compound: COCCOC(=O)N1CCc2nc(C3(NC(=O)c4ccc(Cl)cc4)CCC3)ccc21

inhibition [1]: 90%
IC50 [2]: 0.09 µM
Compound: O=C(NCc1ccc2c(c1)CCN2C(=O)c1cccc(Cl)c1)c1ccc(Cl)cc1

IC50 [2]: 0.005 µM
IC50 [4]: 0.066 µM
Compound: Cc1nccc(N2c3ccc(C4(NC(=O)c5ccc(F)cc5)CC4)cc3[C@@H]3CC[C@@H]32)n1

inhibition [3]: 88%
Compound: CC(C)C(=O)N1CCc2cc(CNC(=O)c3ccc(F)cc3)ccc21

inhibition [3]: 96%
Compound: CCC(=O)N1CCc2cc(CNC(=O)c3ccc(F)cc3)ccc21

inhibition [3]: 100%
Compound: CC(C)C(=O)N1CCc2cc(CNC(=O)c3ccccc3)ccc21

inhibition [3]: 35%
Compound: CC(C)CC(=O)N1CCc2cc(CNC(=O)C3CC3)ccc21

clearance [5]: 3.3 mL/min/kg
IC50 [2]: 0.0029 µM
IC50 [4]: 0.18 µM
MRT [8]: 3.6 h
Compound: Cc1nccc(N2c3ccc(C4(NC(=O)c5ccc(F)cc5)CC4)cc3[C@H]3C[C@H]32)n1

inhibition [3]: 100%
Compound: CC(C)CC(=O)N1CCc2cc(CNC(=O)c3cccs3)ccc21

inhibition [3]: 14%
Compound: CCC(=O)N1CCc2cc(CNC(=O)c3ccnn3C)ccc21

clearance [5]: 61 mL/min/kg
IC50 [2]: 0.0027 µM
CL free [7]: 1691 mL/min/kg
MRT [8]: 2.7 h
Compound: O=C(OC1CC1)N1CCc2nc(C3(C(=O)Nc4ccc(F)cc4)CCC3)ccc21

inhibition [3]: 92%
Compound: CC(C)C(=O)N1CCc2cc(CNC(=O)c3ccc(Cl)cc3)ccc21

clearance [5]: 4.8 mL/min/kg
MRT [9]: 4.9 h
CL free [10]: 4800 mL/min/kg
IC50 [2]: 0.0041 µM
IC50 [6]: 0.011 µM
clearance [11]: 14 mL/min/kg
IC50 [4]: 0.39 µM
CL free [7]: 174 mL/min/kg
MRT [8]: 2.9 h
Compound: O=C(NC1(c2ccc3c(n2)CCN3C(=O)OC2CC2)CC1)c1ccc(Cl)cc1

clearance [5]: 20 mL/min/kg
IC50 [2]: 0.0045 µM
IC50 [6]: 0.00063 µM
IC50 [4]: 0.063 µM
CL free [7]: 2049 mL/min/kg
MRT [8]: 3.2 h
Compound: O=C(NC1(c2ccc3c(n2)CCN3C(=O)OC2CC2)CCC1)c1ccc(Cl)cc1

clearance [5]: 87 mL/min/kg
IC50 [2]: 0.0014 µM
IC50 [6]: 0.00045 µM
CL free [7]: 7720 mL/min/kg
MRT [8]: 1.8 h
Compound: O=C(OC1CC1)N1CCc2cc(C3(C(=O)Nc4ccc(F)cc4)CCC3)ccc21

clearance [5]: 53 mL/min/kg
IC50 [2]: 0.0023 µM
IC50 [6]: 0.00034 µM
IC50 [4]: 0.34 µM
CL free [7]: 35929 mL/min/kg
MRT [8]: 2.2 h
Compound: O=C(Nc1ccc(Cl)cc1)C1(c2ccc3c(n2)CCN3c2ccccn2)CCC1

inhibition [3]: 41%
Compound: CCC(=O)NCc1ccc2c(c1)CCN2C(=O)c1ccccc1

IC50 [2]: 0.127 µM
Compound: O=C(Nc1ccc(F)cc1)C1(c2ccc3c(n2)CCN3c2ccnc(C(F)(F)F)n2)CCC1

IC50 [2]: 0.046 µM
Compound: Cc1nccc(N2CCc3nc(C4(NC(=O)c5ccc(Cl)cc5)CCC4)ccc32)n1

inhibition [3]: 72%
Compound: CC(=O)N1CCc2cc(CNC(=O)c3cccs3)ccc21

inhibition [3]: 77%
Compound: CCC(=O)N1CCc2cc(CNC(=O)c3cccc(Cl)c3)ccc21
